Patent US9004743B2, “Mixing device for creating an output mixture by mixing a first material and a second material” (Revalesio Corporation, priority 2006, dated 2015)
Where two headings read alike, the source gives them in different places.

Experiments:
[1] = tested on: Tilapia; conditions: cited from earlier work
[2] = tested on: glutathione peroxidase; test: Glutathione peroxidase study; format: biochemical; conditions: A340 nm, 25 degrees Celsius
Procedure: The inventive oxygen-enriched output fluid material was tested for the presence of hydrogen peroxide by testing the reactivity with glutathione peroxidase using a standard assay (Sigma). Briefly, glutathione peroxidase enzyme cocktail was constituted in deionized water and the appropriate buffers. Water samples were tested by adding the enzymatic reagents. Continuous spectrophotometric rate determination was made at A340 nm, and room temperature (25 degrees Celsius).

| SMILES | final increase in weight of the fish ([1]; high dissolved oxygen levels (approximately 7.0 ppm)) [grams] | final increase in weight of the fish ([1]; low DO levels (less than 2 ppm)) [g] | reduction in growth rates ([1]; low DO versus high DO) [%] | final increase in weight of the fish ([1]; mid-level DO (approximately 3.5 ppm)) [grams] | reduction in growth rates ([1]; mid-level DO versus high DO) [%] | reactivity with glutathione peroxidase [2] |
| --- | --- | --- | --- | --- | --- | --- |
| O=O [dissolved oxygen, oxygen] | 19 | 1.5 | 92 | 5 | 74 | – |
| OO [hydrogen peroxide] | – | – | – | – | – | strong reactivity |
